Here are results for ten compounds from patent publication US20130237535A1, “FATTY ACID SYNTHASE INHIBITORS” (priority 2010, published 2013).

Sequence of FAS (P49327 whole entry): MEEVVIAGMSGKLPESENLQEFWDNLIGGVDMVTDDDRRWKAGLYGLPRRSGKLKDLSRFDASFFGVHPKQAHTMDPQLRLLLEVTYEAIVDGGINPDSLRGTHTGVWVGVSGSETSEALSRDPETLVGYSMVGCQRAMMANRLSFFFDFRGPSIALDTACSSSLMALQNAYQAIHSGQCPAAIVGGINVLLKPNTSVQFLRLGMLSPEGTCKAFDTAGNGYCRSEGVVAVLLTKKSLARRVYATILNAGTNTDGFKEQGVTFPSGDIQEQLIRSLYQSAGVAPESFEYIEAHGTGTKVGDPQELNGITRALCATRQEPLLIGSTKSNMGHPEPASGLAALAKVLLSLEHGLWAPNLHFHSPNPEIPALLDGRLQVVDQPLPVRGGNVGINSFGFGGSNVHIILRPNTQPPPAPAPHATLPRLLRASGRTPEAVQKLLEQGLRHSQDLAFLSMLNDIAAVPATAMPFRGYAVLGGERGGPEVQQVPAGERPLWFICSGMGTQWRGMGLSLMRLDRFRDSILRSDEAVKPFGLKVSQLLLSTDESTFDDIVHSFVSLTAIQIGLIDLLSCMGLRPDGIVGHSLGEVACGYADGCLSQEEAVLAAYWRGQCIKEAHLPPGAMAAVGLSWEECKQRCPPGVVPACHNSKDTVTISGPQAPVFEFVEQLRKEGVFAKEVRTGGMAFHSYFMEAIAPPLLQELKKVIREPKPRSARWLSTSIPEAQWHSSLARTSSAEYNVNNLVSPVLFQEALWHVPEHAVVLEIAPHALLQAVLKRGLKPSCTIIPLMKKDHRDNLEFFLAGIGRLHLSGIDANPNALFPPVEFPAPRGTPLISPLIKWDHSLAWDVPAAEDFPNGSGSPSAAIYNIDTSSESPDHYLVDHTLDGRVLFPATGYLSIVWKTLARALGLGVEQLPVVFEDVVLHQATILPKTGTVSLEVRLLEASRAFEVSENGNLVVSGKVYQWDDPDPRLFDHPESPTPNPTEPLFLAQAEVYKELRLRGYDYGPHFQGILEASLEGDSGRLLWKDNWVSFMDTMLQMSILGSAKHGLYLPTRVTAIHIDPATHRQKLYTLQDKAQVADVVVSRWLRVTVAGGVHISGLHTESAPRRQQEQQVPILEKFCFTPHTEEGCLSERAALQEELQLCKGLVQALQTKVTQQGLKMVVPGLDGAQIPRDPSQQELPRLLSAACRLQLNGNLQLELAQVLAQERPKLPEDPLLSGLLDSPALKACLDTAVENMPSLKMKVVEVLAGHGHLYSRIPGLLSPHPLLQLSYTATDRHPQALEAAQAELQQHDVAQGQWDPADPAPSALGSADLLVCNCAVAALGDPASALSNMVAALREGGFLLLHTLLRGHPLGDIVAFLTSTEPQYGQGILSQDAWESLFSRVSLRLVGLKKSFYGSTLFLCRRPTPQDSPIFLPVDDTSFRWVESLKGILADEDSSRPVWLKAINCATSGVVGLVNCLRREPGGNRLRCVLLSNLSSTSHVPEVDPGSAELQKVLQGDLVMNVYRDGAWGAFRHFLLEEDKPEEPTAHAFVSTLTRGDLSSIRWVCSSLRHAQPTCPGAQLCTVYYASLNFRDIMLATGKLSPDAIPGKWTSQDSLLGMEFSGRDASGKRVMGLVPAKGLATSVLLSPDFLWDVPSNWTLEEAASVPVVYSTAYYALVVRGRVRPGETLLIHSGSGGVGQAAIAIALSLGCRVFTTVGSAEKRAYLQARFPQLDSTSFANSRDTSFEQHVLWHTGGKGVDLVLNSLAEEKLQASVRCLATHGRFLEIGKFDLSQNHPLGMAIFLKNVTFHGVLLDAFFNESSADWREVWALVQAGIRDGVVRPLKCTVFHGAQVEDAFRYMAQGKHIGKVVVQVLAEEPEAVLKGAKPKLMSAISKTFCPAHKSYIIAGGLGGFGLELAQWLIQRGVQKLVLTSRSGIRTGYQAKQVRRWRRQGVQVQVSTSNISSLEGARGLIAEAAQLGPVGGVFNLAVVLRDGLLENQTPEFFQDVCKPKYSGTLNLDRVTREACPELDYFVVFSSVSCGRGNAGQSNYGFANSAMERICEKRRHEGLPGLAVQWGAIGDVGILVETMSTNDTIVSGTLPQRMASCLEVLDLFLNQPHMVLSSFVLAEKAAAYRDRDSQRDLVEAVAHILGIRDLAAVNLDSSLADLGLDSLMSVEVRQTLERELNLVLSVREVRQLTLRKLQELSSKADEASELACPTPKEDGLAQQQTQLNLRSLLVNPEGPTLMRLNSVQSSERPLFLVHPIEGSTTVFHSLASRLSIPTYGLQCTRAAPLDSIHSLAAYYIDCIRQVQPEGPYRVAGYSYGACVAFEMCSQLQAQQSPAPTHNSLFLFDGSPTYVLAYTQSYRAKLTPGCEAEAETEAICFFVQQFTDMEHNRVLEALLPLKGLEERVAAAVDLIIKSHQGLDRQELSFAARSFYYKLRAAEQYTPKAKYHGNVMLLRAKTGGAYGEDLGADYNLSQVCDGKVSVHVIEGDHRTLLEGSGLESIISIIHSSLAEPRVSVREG

The target in the assay is FAS (Homo sapiens, UniProt P49327). Kind of assay: FAS assay (Assay #1 residual NADPH detection or Assay #2 CoA detection with thio-reactive coumarin dye). It is filed as biochemical. The conditions noted are these: average IC50 values, each compound tested two or more times; FAS Assay #1 or #2. As to the method:
FAS activity was measured through one of the two following assays.
Inhibition of FAS activity can be measured based on the detection of residual NADPH substrate after the FAS assay is quenched. This assay is run as a 10 μL, endpoint assay in 384-well format, where the reaction contains 20 μM malonyl-CoA, 2 μM acetyl-CoA, 30 μM NADPH and 40 nM FAS in 50 mM sodium phosphate, pH 7.0. The assay is run by sequentially dispensing 5 μl of a malonyl-CoA solution, then enzyme solution (containing the acetyl-CoA, and NADPH) into a black, low volume assay plate (Greiner 784076) pre-dispensed with 100 nL compound solutions in DMSO. The reaction is incubated at ambient temperature for 60 minutes, then quenched with 5 μL, of a developing solution composed of 90 μM resazurin, 0.3 IU/ml diaphorase in 50 mM sodium phosphate, pH 7.0. The developed reaction is read on a Molecular Devices Analyst or Acquest (or equivalent) plate reader using a 530 nm excitation wavelength filter, a 580 nm emission filter, and 561 nm dichroic filter. The test compounds are prepared in neat DMSO at a concentration of 10 mM. For inhibition curves, compounds are diluted using a three fold serial dilution and tested at 11 concentrations (e.g. 25 μM-0.42 nM). Curves are analysed using ActivityBase and XLfit, and results are expressed as pIC50 values.
Inhibition of FAS can also be quantified based on the detection of the CoA products with a thio-reactive coumarin dye. This assay is run as a 10 μL endpoint assay in 384-well format, where the reaction contains 20 μM malonyl-CoA, 20 μM acetyl-CoA, 40 μM NADPH and 2 nM FAS in 50 mM sodium phosphate, pH 7.0, and 0.04% Tween-20. The assay is run by adding 5 μL enzyme solution to a black, low volume assay plate (Greiner 784076) pre-dispensed with 100 nl compound solutions in DMSO. After 30 minutes, 5 μL substrate is added, and the reaction incubated at ambient temperature for an additional 60 minutes. The reaction is then quenched with 10 μL of 6M guanidine-HCl containing 50 μM CPM (7-diethylamino-3-(4′-maleimidylphenyl)-4-methylcoumarin (CPM; thio-reactive dye), and incubated for 30 minutes. The plate is read on an Envision (PerkinElmer) or equivalent plate reader using a 380 nm excitation wavelength filter, and a 486 nm emission filter. Data fitting and compound preparations are done as described above.
`O=C1COC2(CCN(S(=O)(=O)c3ccc(-c4ccc5cccnc5c4)cc3F)CC2)CN1C1CC1` [Example 59, 4-cyclopropyl-9-{[2-fluoro-4-(7-quinolinyl)phenyl]sulfonyl}-1-oxa-4,9-diazaspiro[5.5]undecan-3-one]: half-maximal inhibition (IC50) was put at 13 nM. On to `O=C1COC2(CCN(S(=O)(=O)c3ccc(-c4ccc5scnc5c4)cc3F)CC2)CN1C1CC1` [Example 76, 9-{[4-(1,3-benzothiazol-5-yl)-2-fluorophenyl]sulfonyl}-4-cyclopropyl-1-oxa-4,9-diazaspiro[5.5]undecan-3-one], for which the IC50 (commonly the point on the concentration scale where inhibition reaches its midpoint) was 32 nM. As for `O=C1COC2(CCN(S(=O)(=O)c3ccc(-c4ccc5cc[nH]c5c4)cc3)CC2)CN1C1CC1` [Example 14, 4-cyclopropyl-9-{[4-(1H-indol-6-yl)phenyl]sulfonyl}-1-oxa-4,9-diazaspiro[5.5]undecan-3-one], the IC50 was determined as 40 nM. `Cn1nc(NS(C)(=O)=O)c2cc(-c3ccc(S(=O)(=O)N4CCC5(CC4)CN(C4CC4)C(=O)CO5)cc3)ccc21` [Example 105, N-(5-{4-[(4-cyclopropyl-3-oxo-1-oxa-4,9-diazaspiro[5.5]undec-9-yl)sulfonyl]phenyl}-1-methyl-1H-indazol-3-yl)methanesulfonamide]: half-maximal inhibition (IC50) was put at 63 nM. As for `CCN1CC2(CCN(S(=O)(=O)c3ccc(-c4ccc5occc5c4)cc3)CC2)OCC1=O` [Example 3, 9-{[4-(1-benzofuran-5-yl)phenyl]sulfonyl}-4-ethyl-1-oxa-4,9-diazaspiro[5.5]undecan-3-one], the figure is 251 nM; as for `O=C1COC2(CCN(S(=O)(=O)c3ccc(-c4ccccc4)cc3)CC2)CN1C1CC1` [Example 13, 9-(4-biphenylylsulfonyl)-4-cyclopropyl-1-oxa-4,9-diazaspiro[5.5]undecan-3-one], 1260 nM. `O=C1COC2(CCN(S(=O)(=O)c3ccc(-c4ccc5cccnc5c4)cc3)CC2)CN1C1CC1` [Example 29, 4-cyclopropyl-9-{[4-(7-quinolinyl)phenyl]sulfonyl}-1-oxa-4,9-diazaspiro[5.5]undecan-3-one] registered an IC50 of 10 nM. For the compound `O=C1COC2(CCN(S(=O)(=O)c3ccc(-c4ccc5cnccc5c4)cc3)CC2)CN1C1CC1` [Example 86, 4-cyclopropyl-9-{[4-(6-isoquinolinyl)phenyl]sulfonyl}-1-oxa-4,9-diazaspiro[5.5]undecan-3-one], 6 nM corresponded to half-maximal inhibition (IC50). The compound `O=C1COC2(CCN(S(=O)(=O)c3ccc(-c4ccc5[nH]ccc5c4)cc3F)CC2)CN1C1CC1` [Example 70, 4-cyclopropyl-9-{[2-fluoro-4-(1H-indol-5-yl)phenyl]sulfonyl}-1-oxa-4,9-diazaspiro[5.5]undecan-3-one] displayed an IC50 of 32 nM. Regarding `O=C1COC2(CCN(S(=O)(=O)c3ccc(-c4cc5ccccc5o4)cc3)CC2)CN1C1CC1` [Example 26, 9-{[4-(1-benzofuran-2-yl)phenyl]sulfonyl}-4-cyclopropyl-1-oxa-4,9-diazaspiro[5.5]undecan-3-one], the midpoint of inhibition, the IC50, lay at 200 nM.
